The text below walks through data of patent US20030216569A1, “Method of making HIV protease inhibitors” (priority 1993, published 2003).

The subject of assay [1] is Viral SN123 infected CEM cells. The following applies: values in parentheses are 35B in same assay.
For assay [2], the system named is HIV-1 isolates IIIB and/or RF in MT-2 cells. The assay is described as follows: SRI primary anti-HIV screen, MTT assay of inhibition of HIV-induced cell killing in MT2 cells. Type of assay: cell-based. Conditions: for IC50: Human immunodeficiency virus 1, IIIB, MT2, read-out: SRI MT2 IC50 ng/ml, MT2 cells; for SRI MT2 IC50: MT2 cells. An excerpt: I. Primary Drug Screening of Anti-HIV Compounds at Southern Research Institute (SRI) (Results recorded in Table 1 are designated “SRI CEM (ng/ml)” or “SRI MT2 (ng/ml)”)
(§1) A. Principle of MTT Assay:
(§2) SRI has an established program for the primary antiviral analysis of compounds in microtiter assays which measures the ability of a selected compound to inhibit HIV-induced cell killing. This assay involves the conversion of the tetrazolium dye MTT to a colored formazan product by mitochondrial enzymes in metabolically active cells. This assay system is used at SRI to screen over 30,000 compounds per year. Briefly, the assay involves the infection of CEM or MT2 cells in round bottom 96-well plates. The compound of interest is added just prior to infection. Following 6 days of incubation at 37° C. the plates are stained with MTT. The results of the assay are quantitated spectrophotometrically on a Molecular Devices Vmax plate reader. The data are analyzed by linear regression utilizing an in-house software program to calculate antiviral activity (IC25, IC50, IC95) and toxicity (TC25, TC50, TC95) as well as other values.
(§3) Primary antiviral assays are routinely performed in CEM or MT-2 cells.
(§4) B. Standard Screening Assays in CEM and MT-2 Cells
(§5) 1. Compound dilution and delivery to the plates
Drugs are solubilized in the appropriate vehicle such as distilled water or DMSO if necessary. Latex gloves, lab coats and masks are used during all phases of the handling process to prevent exposure to potentially harmful agents. The drug is prepared at the appropriate concentration and stored at −20° C. until used by the screening laboratory. The first dilution of each compound is made in a dilution tube with medium to yield a concentration two-fold that of the highest test concentration. Sterile titer tubes are then used to make serial one half-log dilutions of each compound. Following drug dilution, the diluted compound is added to the appropriate well of a 96-well microtiter plate. […] When testing includes only six dilutions, two drugs can be assayed on a single microtiter plate. The drugs are added to the plate in a final volume of 100 microliters.
(§6) During the time the drug dilutions are prepared, cells are washed and counted. Viability is monitored by trypan blue dye exclusion and assays are not performed if the viability falls below 90%. Cells are maintained in an exponential growth phase and are split 1:2 on the day prior to assay to assure exponential growth rate.
(§7) For the primary screen, the cell lines utilized are CEM and MT-2. Unless otherwise indicated, the medium used is RPMI 1640 with 10% heat-inactivated fetal calf serum (FBS), glutamine and antibiotics.
(§8) Cells are propagated at 37° C. in an atmosphere of 5% CO2 in air. The virus employed for this work is HIV-1 isolates IIIB and/or RF, which are prepared by an acute infection process.
(§9) Briefly, virus-infected cells are pelleted on a daily basis beginning at three days post-infection until the virus has killed all of the cells in the culture. Reverse transcriptase activity and p24 ELISA are used to identify pools with the greatest amout of virus.
(§10) These 24-hour harvests are pooled, filtered and frozen at −90° C. Prior to use in the assay, the infectious pool of virus is titered on all available cell lines in order to determine the amount of virus required in the antiviral assay.
In general, pools produced by the acute infection method require the addition of one microliter of infectious virus per well resulting in the screening of drugs at a multiplicity of infection of 0.01. In this manner, enough virus is prepared and frozen to complete over one thousand microtiter plates, allowing the testing of up to two thousand compounds from a single stock of infectious virus. The use of a single stock of virus for a long period of testing has very favorable effects on the repeatability of the assay systems. […]
(In general: Tetrazolium dyes change colour on reduction, which living cells bring about.)

The test system of assay [3] is HIV-1 isolates IIIB and/or RF in CEM cells. The assay is described as follows: SRI primary anti-HIV screen, MTT assay of inhibition of HIV-induced cell killing in CEM cells. Format: cell-based. Conditions: for SRI CEM IC50: CEM cells; for IC50: Human immunodeficiency virus 1, IIIB, CCRF-CEM, read-out: SRI CEM IC50 ng/mL, CEM cells. The procedure: as §1
as §2, with “This” for “SRI has an established program for the primary antiviral analysis of compounds in microtiter assays which measures the ability of a selected compound to inhibit HIV-induced cell killing. This”
as §3, §4, §5
Drugs are solubilized in the appropriate vehicle such as distilled water or DMSO if necessary. Latex gloves, lab coats and masks are used during all phases of the handling process to prevent exposure to potentially harmful agents. The drug is prepared at the appropriate concentration and stored at −20° C. until used by the screening laboratory. The first dilution of each compound is made in a dilution tube with medium to yield a concentration two-fold that of the highest test concentration. Sterile titer tubes are then used to make serial one half-log dilutions of each compound. Following drug dilution, the diluted compound is added to the appropriate well of a 96-well microtiter plate. Up to 12 dilutions can be assayed conveniently in triplicate on a single plate with all appropriate controls including cell control, virus control, toxicity control, drug color control, medium control and plastic (background) control. When testing includes only six dilutions, two drugs can be assayed on a single microtiter plate. The drugs are added to the plate in a final volume of 100 microliters.
as §6, §7, §8, §9, §10
In general, pools produced by the acute infection method require the addition of one microliter of infectious virus per well resulting in the screening of drugs at a multiplicity of infection of 0.01. In this manner, enough virus is prepared and frozen to complete over one thousand microtiter plates, allowing the testing of up to two thousand compounds from a single stock of infectious virus.
Virus infection of the CEM and MT-2 cells for the antiviral assay is carried out in a bulk infection process.

[4] abbreviates: Human immunodeficiency virus 1, CCRF-CEM, read-out: Whole cell IC50 nM, CEM cells.
[5] abbreviates: Human immunodeficiency virus 1, CCRF-CEM, read-out: Whole cell IC90 nM, CEM cells.

Each structure is given as a SMILES string. ≈ marks a conversion by molar mass, not a printed value. Like-named read-outs stand apart in the source and are kept apart here.

With `Cc1c(N)cccc1C(=O)NC(Cc1ccccc1)C(O)CN1CC2CCCCC2CC1C(=O)NC(C)(C)C` (stereo not drawn) [Example 18, [3S-(3R*,4aR*,8aR*,2′S*,3′R*)]-2-[2′-Hydroxy-3′-phenylmethyl-4′-aza-5′-oxo-5′-(2″-methyl-3″-aminophenyl)pentyl] decahydroisoquinoline-3-N-t-butylcarboxamide], the IC50 in assay [1] (setting [4]) was determined as 739 nM. Further, in assay [2], the IC50 stood at 254 ng/mL (≈ 0.475 µM) and the “SRI MT2 IC50” value amounted to 0.232 µg/mL. For the same compound, in assay [3], the “SRI CEM IC50” value was found to be 0.231 µg/mL and the IC50 came out at 256 ng/mL (≈ 0.479 µM).
In the case of `CC(C)c1c(O)cccc1C(=O)NC(Cc1ccccc1)C(O)CN1CC2CCCCC2CC1C(=O)NC(C)(C)C` (stereo not drawn) [Example 20, [3S-(3R*,4aR*,8aR*,2′S*,3′R*)]-2-[2′-Hydroxy-3′-phenylmethyl-4′-aza-5′-oxo-5′-(2″-iospropyl-3″-hydroxyphenyl)pentyl] decahydroisoquinoline-3-N-t-butylcarboxamide], the IC50 worked out at 186 nM in assay [1] (setting [4]), 144 ng/mL (≈ 0.255 µM) in assay [2] and 153 ng/mL (≈ 0.271 µM) in assay [3]. Further, in assay [1] (setting [5]), the IC90 amounted to 671 nM.
For `CCCCc1c(O)cccc1C(=O)NC(Cc1ccccc1)C(O)CN1CC2CCCCC2CC1C(=O)NC(C)(C)C` (stereo not drawn) [Example 21, [3S-(3R*,4aR*,8aR*,2′S*,3′R*)]-2-[2′-Hydroxy-3′-phenylmethyl-4′-aza-5′-oxo-5′-(2″-butyl-3′″-hydroxyphenyl)pentyl] decahydroisoquinoline-3-N-t-butylcarboxamide], in that order: 414 nM, 427 ng/mL (≈ 0.739 µM), 443 ng/mL (≈ 0.767 µM) and 886 nM.
With `CCCc1c(O)cccc1C(=O)NC(Cc1ccccc1)C(O)CN1CC2CCCCC2CC1C(=O)NC(C)(C)C` (stereo not drawn) [Example 22, [3S-(3R*,4aR*,8aR*,2′S*,3′R*)]-2-[2′-Hydroxy-3′-phenylmethyl-4′-aza-5′-oxo-5′-(2″-propyl-3″-hydroxyphenyl)pentyl] decahydroisoquinoline-3-N-t-butylcarboxamide], the IC50 worked out at 400 nM in assay [1] (setting [4]), 53 ng/mL (≈ 0.094 µM) in assay [2] and 136 ng/mL (≈ 0.241 µM) in assay [3]. For the same compound, in assay [1] (setting [5]), the concentration for an effect of 90% (IC90) worked out at 798 nM.
As for `Cc1c(O)cccc1C(=O)NC(Cc1ccccc1)C(O)CN1CC2CCCCC2CC1C(=O)NC(C)(C)C` (stereo not drawn) [Example 23, [3S-(3R*,4aR*,8aR*,2′S*,3′R*)]-2-[2′-Hydroxy-3′-phenylmethyl-4′-aza-5′-oxo-5′-(2″-methyl-3″-hydroxyphenyl)pentyl] decahydroisoquinoline-3-N-t-butylcarboxamide], the IC50 in assay [1] (read-out: Whole cell IC50 nM, CEM cells) worked out at 2.39 nM. Further, in assay [1] (read-out: Whole cell IC90 nM, CEM cells), the IC90 was determined as 19 nM. Moreover, the “SRI MT2 IC50” value in assay [2] came out at 0.00627 µg/mL. Besides, in assay [3], the “SRI CEM IC50” value was 0.00862 µg/mL.
`Cc1c(O)cccc1C(=O)NC(CSc1ccc2ccccc2c1)C(O)CN1CC2CCCCC2CC1C(=O)NC(C)(C)C` (stereo not drawn) [Example 24, [3S-(3R*,4aR*,8aR*,2′S*,3′R*)]-2-[2′-Hydroxy-3′-(naphth-2-ylthiomethyl)-4′-aza-5′-oxo-5′-(2″-methyl-3″-hydroxyphenyl)pentyl] decahydroisoquinoline-3-N-t-butylcarboxamide]: the IC50 came to 25 nM in assay [1] (setting [4]), 41.4 ng/mL (≈ 0.067 µM) in assay [2] and 67 ng/mL (≈ 0.108 µM) in assay [3]. The “SRI MT2 IC50” value in assay [2] is 0.0464 µg/mL.
`Cc1c(O)cccc1C(=O)N[C@@H](Cc1ccccc1)[C@H](O)CN1CCN(Cc2cccnc2)C[C@H]1C(=O)NC(C)(C)C` [Example 26, [2S-(2R*,2′S*,3′R*)]-1-[2′-Hydroxy-3′-phenylmethyl-4′-aza-5′-oxo-5′-(2″-methyl-3″-hydroxyphenyl)pentyl]-4-(pyrid-3′″-ylmethyl) piperazine-2-N-t-butylcarboxamide]: the figures for the IC50 in assay [1] (setting [4]), in assay [2] and in assay [3] were 56 nM, 49 ng/mL (≈ 0.0854 µM) and 49.7 ng/mL (≈ 0.0866 µM), respectively. For the same compound, the concentration for an effect of 90% (IC90) in assay [1] (setting [5]) came out at 166 nM.

By IC90 is commonly meant the concentration at which the effect reaches the 90% level.
